Results: patent US20220273596A1, “SYNERGISTIC COMBINATION OF S-KETOROLAC AND PREGABALIN IN A PHARMACEUTICAL COMPOSITION FOR THE TREATMENT OF NEUROPATHIC PAIN” (priority 2019, published 2022)

Key:
[1] = test system: cold allodynia in rats with chronic constriction injury (CCI) of the sciatic nerve; assay: Acetone test (cold allodynia) in rats with chronic constriction injury of the sciatic nerve (Bennett and Xie model); type: in vivo, Male Wistar rats; conditions: for anti-allodynic effect: oral, temporal course 0-180 min; for dose dependence of anti-allodynic effects: given orally, alone; for Anti-allodynic efficacy: Maximal efficacy (AUC: X ± SE): most efficacious dose po: Pregabalin 31.6 mg/Kg, S-ketorolac 1.0 mg/Kg, AUC of 180-min temporal course, maximum possible 300 au, n=6; for maximal anti-allodynic effect (AUC): pregabalin 31.6 mg/Kg po, S-Ket 1.0 mg/Kg po, 180-min temporal course; for Anti-allodynic efficacy: Relative efficacy: relative to pregabalin, Pregabalin 31.6 mg/Kg po, S-ketorolac 1.0 mg/Kg po
Method: (§1) Male Wistar rats were used in the experiments. […] The animals were kept in polycarbonate cages under controlled temperature and light conditions, with 12-hour light/darkness cycles and free access to food and water. All experiments were performed during the light phase of the light/darkness cycles. The animals were used and handled according to the international guidelines on Ethical Standards for Investigations of Experimental Pain established by the Committee for Research and Ethical Issues of the International Association for the Study of Pain. The number of experiment animals was kept to a minimum (n=6), and at the end of the experimental assessments the animals were sacrificed using carbon dioxide.
(§2) Immediately after the rats were anesthetized, their right hind limb sciatic nerves were dissected through an incision, in which the biceps femoris muscle was dissected for locating the most proximal site to the trifurcation of the sciatic nerve, and to apply four loose ligations with silk thread.
(§3) Once the surgery was finished, the muscle was sutured with absorbable thread, and the skin was sutured with silk thread. Sham surgery in rats was performed likewise, although without ligating the sciatic nerve. All procedures were performed under aseptic conditions. The degree of hyperalgesia and allodynia in rats subjected to sciatic nerve surgery was determined using the Von Frey test (mechanical hyperalgesia) and the acetone test (cold allodynia).
The acetone test (cold allodynia) was performed and assessed as follows: Once the Von Frey test was finished, rats were left to rest over the metallic mesh, and after a 5-10 minute period, 0.1 mL of acetone was applied on the sole callosities of the right hindlimb with a syringe with a flexible plastic point from under the mesh. Then, a chronometer recorded the time in seconds in which the animals kept the hindlimb away from the mesh during the first 60 seconds after being exposed to acetone. The response time of the right hindlimb was measured. Three measurements were made (1 measurement every 2 minutes).
(§4) In a first stage, the experimental design of the groups and the experiments were performed as follows: • a) Several groups of 6 animals with neuropathic pain (sciatic nerve ligation) were formed.
All combinations to be assessed were designed. It was decided to evaluate combinations with 24 different proportions, to have the fullest possible notion of the interaction of these 2 analgesics, and for obtaining and determining the optimal combinations in terms of efficacy and anti-allodynic potentiation.

[2] = test system: mechanical hyperalgesia in rats with chronic constriction injury (CCI) of the sciatic nerve; assay: Von Frey test (mechanical hyperalgesia, 15-gram filament) in rats with chronic constriction injury of the sciatic nerve; type: in vivo, Male Wistar rats; conditions: for dose dependence of anti-hyperalgesic effects: given orally, alone; for Antihyperalgesic efficacy: Maximal efficacy (AUC: X ± SE): most efficacious dose po: Pregabalin 31.6 mg/Kg, S-ketorolac 3.16 mg/Kg, AUC of 180-min temporal course, n=6; for maximal antihyperalgesic effect (AUC): pregabalin 31.6 mg/Kg po, S-Ket 3.16 mg/Kg po; for Antihyperalgesic efficacy: Relative efficacy: relative to pregabalin, Pregabalin 31.6 mg/Kg po, S-ketorolac 3.16 mg/Kg po
Method: as §1, §2, §3
Von Frey test (mechanic hyperalgesia). Rats were placed over a metallic mesh in a clear acrylic box and remained in the box at least 10 minutes before the test, in order to allow the rats to adapt to the environment. The response was determined by means of a tactile stimulus on the sole callosities of the right hindlimb with the 15-gram Von Frey filament. Ten stimuli were applied (one stimulus approximately every 3 seconds), and the response percentage was obtained (% response=number of responses/10 ×100).
as §4
It was decided to base assessments on 6 doses of the pregabalin DRCs (0.0316, 0.1, 0.316, 1.0, 3.16 and 10 mg/Kg) and to combine them with 4 different S-ketorolac doses (0.0316, 0.10, 0.316 and 1.0 mg/Kg p.o.).

[3] = pregabalin 10.0 mg/Kg po alone, reached 3 h after administration

Compound	anti-allodynic effect ([1]; 0.0316 mg/Kg dose)	anti-allodynic effect ([1]; 31.6 mg/Kg dose)	dose dependence of anti-allodynic effects [1]	Anti-allodynic efficacy: Maximal efficacy (AUC: X ± SE) [1]	anti-allodynic Emax [1, 3] [%]	maximal anti-allodynic effect (AUC) [1] [ua]	Anti-allodynic efficacy: Relative efficacy [1]	dose dependence of anti-hyperalgesic effects [2]	more anti-hyperalgesia than S-ketorolac ([2]; most effective oral doses given alone) [%]	Antihyperalgesic efficacy: Maximal efficacy (AUC: X ± SE) [2]	antihyperalgesic effect ([2]; pregabalin 0.316 mg/Kg po alone, over the assessment period)	antihyperalgesic Emax [2, 3] [%]	maximal antihyperalgesic effect (AUC) [2] [ua]	Antihyperalgesic efficacy: Relative efficacy [2]	anti-allodynic effect ([1]; 1.0 mg/Kg dose)	anti-allodynic Emax ([1]; S-ketorolac 0.316 mg/Kg po alone, reached 30 minutes after administration) [%]	anti-allodynic efficacy as percent of that induced by oral pregabalin ([1]; S-ketorolac 1.0 mg/Kg po vs pregabalin 31.6 mg/Kg po) [%]	antihyperalgesic effect ([2]; S-ketorolac 1.0 mg/Kg po alone)	antihyperalgesic Emax ([2]; S-ketorolac 1.0 mg/Kg po alone, reached 60 minutes after administration) [%]	antihyperalgesic efficacy as percent of that delivered by pregabalin ([2]; S-ketorolac 3.16 mg/Kg po vs pregabalin 31.6 mg/Kg po) [%]
CC(C)C[C@H](CN)CC(=O)O [Pregabalin, (3S)-3-(aminomethyl)-5-methylhexanoic acid]	almost no anti-allodynic effect	significant anti-allodynic effect	dose-dependent anti-allodynic effects	241.6 ± 9.5	83.4±3.7	241.6±9.5	1.0	dose-dependent anti-hyperalgesic effects	49	220.4 ± 12.3	practically no antihyperalgesic effects	78.3±5.4	220.4±12.3	1.0						
O=C(c1ccccc1)c1ccc2n1CCC2C(=O)O (centres unmarked) [S-ketorolac, 5-Benzoyl-2,3-dihydro-1H-pyrrolizine-1-carboxylic acid]	almost no anti-allodynic effect		dose-dependent anti-allodynic effects	111.2 ± 20.3		111.2±20.3	0.46	dose-dependent anti-hyperalgesic effects		112.5 ± 3.5			112.5±3.5	0.51	significant anti-allodynic effect	44.0±7.7	46	little antihyperalgesic effect	40.0±5.8	51
